In ChEMBL document CHEMBL4834449, “Anti-inflammatory Eudesmane Sesquiterpenoids from Artemisia hedinii” (2021):
Calls of active or inactive are those of the source. The rule behind the calls is not given here.

How the values were obtained:
BMDM [1] = assay: Antiinflammatory activity in LPS-induced in C57 mouse BMDM cells assessed as reduction in TNFalpha mRNA expression at 20 uM incubated for 12 hrs by qRT-PCR analysis; type: functional, cell-based
BMDM [2] = assay: Antiinflammatory activity in LPS-induced in C57 mouse BMDM cells assessed as reduction in IL-6 level by ELISA; type: functional, cell-based
BMDM [3] = assay: Antiinflammatory activity in LPS-induced in C57 mouse BMDM cells assessed as reduction in IL-12 mRNA expression at 20 uM incubated for 12 hrs by qRT-PCR analysis; type: functional, cell-based
BMDM [4] = assay: Antiinflammatory activity in LPS-induced in C57 mouse BMDM cells assessed as reduction in IFN-gamma level at 5 to 20 uM by ELISA (Rvb < 7.8 pg/ml); type: functional; conditions: dose 5-20 µM
BMDM [5] = assay: Antiinflammatory activity in LPS-induced in C57 mouse BMDM cells assessed as reduction in TNFalpha level by ELISA; type: functional, cell-based
BMDM [6] = assay: Antiinflammatory activity in LPS-induced in C57 mouse BMDM cells assessed as reduction in IFN-gamma level at 10 to 20 uM by ELISA (Rvb < 7.8 pg/ml); type: functional; conditions: dose 10-20 µM

Structure (SMILES)	inhibition (BMDM [1])	inhibition (BMDM [2])	inhibition (BMDM [3])	Activity (BMDM [4]) [pg/mL]	inhibition (BMDM [4])	inhibition (BMDM [5])	Activity (BMDM [6]) [pg/mL]	inhibition (BMDM [6])
C=C(C(=O)O)[C@H]1C=C2C(C)=CCC[C@]2(C)[C@@H](O)C1	Active	Dose-Dependent Effect	Active	<7.8	Dose-Dependent Effect	Dose-Dependent Effect	–	–
C=C(C(=O)O)[C@H]1CC2=C(C)[C@H](OC)CC[C@]2(C)[C@@H](OC(C)=O)C1	Active	–	Active	–	–	–	–	–
C=C(C(=O)O)[C@H]1CC2=C(C)[C@H](O)CC[C@]2(C)[C@@H](OC(C)=O)C1	Active	–	Active	–	–	–	–	–
C=C(C(=O)O)[C@H]1CC2=C(C(=O)O)CCC[C@]2(C)[C@@H](OC(C)=O)C1	Active	–	Active	–	–	–	–	–
C=C(C(=O)O)[C@H]1CC2=C(C)[C@H](OCC)CC[C@]2(C)[C@@H](OC(C)=O)C1	Active	–	Active	–	–	–	–	–
C=C(C(=O)O)[C@H]1CC2=C(CO)CCC[C@]2(C)[C@@H](OC(C)=O)C1	Active	–	Active	–	–	–	–	–
C=C(C(=O)O)[C@H]1CC2=C(C)CCC[C@]2(C)[C@@H](OC(C)=O)C1	Active	–	Active	–	–	–	–	–
C=C(C(=O)O)[C@@H]1C[C@H](O)[C@@]2(C)CCCC(=C)[C@]2(O)C1	Active	–	Active	–	–	–	–	–
C=C(C(=O)O)[C@@H]1C[C@H](OC(C)=O)[C@@]2(C)CCCC(=C)[C@]2(O)C1	Active	Dose-Dependent Effect	Active	<7.8	Dose-Dependent Effect	Dose-Dependent Effect	–	–
C=C(C(=O)O)[C@H]1CC2=C(C)[C@@H](O)CC[C@]2(C)[C@@H](OC(C)=O)C1	Active	–	Active	–	–	–	–	–
C=C(C(=O)O)[C@H]1CC2=C(C=O)CCC[C@]2(C)[C@@H](O)C1	Active	–	Active	–	–	–	–	–
C=C(C(=O)O)[C@H]1CC2=C(C)C(=O)CC[C@]2(C)[C@@H](O)C1	Active	–	Active	–	–	–	–	–
CC(=O)O[C@H]1C[C@@H]([C@](O)(CO)C(=O)O)CC2=C(C)CCC[C@@]21C	Active	–	Active	–	–	–	–	–
C=C(C(=O)O)[C@@H]1C[C@H](OC(C)=O)[C@@]2(C)CCCC(=C)[C@@]2(O)C1	Active	–	Active	–	–	–	–	–
C=C(C(=O)O)[C@H]1CC2=C(C)C(=O)CC[C@]2(C)[C@@H](OC(C)=O)C1	Active	Dose-Dependent Effect	Active	<7.8	Dose-Dependent Effect	Dose-Dependent Effect	–	–
C=C(C(=O)O)[C@H]1C=C2C(C)=CCC[C@]2(C)[C@@H](OC(C)=O)C1	Active	–	Active	–	–	–	–	–
C[C@]12CCC(=O)C=C1[C@H](O)[C@H]([C@](C)(O)CO)CC2	Active	Dose-Dependent Effect	Active	<7.8	Dose-Dependent Effect	Dose-Dependent Effect	–	–
C=C(C(=O)O)[C@H]1CC2=C(C)CCC[C@]2(C)[C@@H](O)C1	Active	Dose-Dependent Effect	Active	–	–	Dose-Dependent Effect	<7.8	Dose-Dependent Effect
C=C(C(=O)O)[C@@H]1CC[C@@]2(C)CCC[C@@](C)(O)[C@@H]2C1	Active	–	Active	–	–	–	–	–
CC(=O)O[C@H]1C[C@@H]([C@@](O)(CO)C(=O)O)CC2=C(C)CCC[C@@]21C	Active	Dose-Dependent Effect	Active	–	–	Dose-Dependent Effect	<7.8	Dose-Dependent Effect
